Series [1] in a line: Chromatographic lipophilicity study (Chrom logD7.4). As to conditions: gradient reverse-phase HPLC (Phenomenex Luna C18 column); pH 7.4, gradient reverse-phase HPLC, from CHI7.4. The series is classed as physicochemical. As to the method: In order to determine the lipophilicity range, Chromatographic Hydrophobicity Index was measured by gradient reverse-phase HPLC at physiological pH. Sample working solutions were prepared from 10 mM DMSO stock solutions by dilution with acetonitrile to a final concentration of 1.25 mM and analysed on Agilent 1100 Series liquid chromatography system with HPLC diode-array detector (DAD) coupled with Micromass Quattro micro API mass spectrometer. Samples were injected onto an HPLC column (Phenomenex Luna C18, 50 × 3 mm, 5 µm) and eluted with a gradient at room temperature (sample temperature 15 °C). The mobile phase was composed of 50 mM Ammonium acetate, pH = 7.4 and acetonitrille. A total run time was 5 min, with the flow rate of 1 ml/min (under gradient conditions). The HPLC system was initially calibrated using the calibration set of 10 compounds with literature CHI values. The experimentally determined gradient retention times were plotted against the CHI7.4 values published in the literature resulting in the equation obtained from linear regression analysis. This equation was further used for the calculation of CHI7.4 for test compounds from determined retention times of the main chromatographic peak from UV chromatogram for each compound. The obtained CHI7.4 values were further converted to Chrom log D7.4 as follows: CHI7.4 × 0.0857 − 2.

The test system of series [2] is NCI-H358. Description: Cell viability assay, 3D hanging drop cell culture (CellTiter GLO 3D). The series is classed as cell-based. The settings on record: Homo sapiens; NCI-H358, 3D hanging drop cell culture, 72 h; ±SD, N = 2; read-out: IC50 antitumor activity NCI-H358 3D. As for the experimental part: (§1) Compounds are diluted 1:3. 500 nL (for 2 D cell culture) or 400 nL (for 3 D cell culture) of compound were transferred from mother plate to test plate by using Mosquito (TTP labtech). DMSO percentage in test concentrations was 0.5 − 1.0%. Starting concentration of the test compounds and standard compound doxorubicin was 50 µM (2 D cell culture) or 100 µM (3 D cell culture).
Cells were grown in 96 well Perfecta 3 D hanging drop plates 5000 cell/well for 4 days until spheres were formed (and checked under the microscope). After sphere formation cells were treated with compounds followed by 72 h incubation. Cell viability assay was performed according to the manufacturer’s instruction, using CellTiter GLO 3 D for 3 D cell culture (Promega); cell incubation was 5 min on the shaker followed by 25 min incubation in the dark. Plates were read using PE EnVision luminescence.
(§2) Calculation of IC50 data, curves and QC analysis is made by using Excel tools and GraphPadPrism software (La Jolla, CA), v. […] QC criteria parameters (Z', S:B, R2, HillSlope) were checked for every IC50 curve.

A short description of series [3]: Plasma protein binding, equilibrium dialysis. The series is classed as in vitro ADME. As to conditions: for fraction unbound at 4 h, 5 µM: equilibrium dialysis 4 h, 37 °C; for recovery at 4 h, 5 µM: recovery in PPB experiment (value in brackets). As for the experimental part: The extent of binding to plasma proteins was assessed using equilibrium dialysis method. Plasma (human and mouse) was spiked with test compounds and three controls (nicardipine and verapamil in both species, acebutolol in human and caffeine in mouse plasma) to obtain final concentration of 5 µM (0.5%DMSO). Hydrated membranes were inserted into equilibrium dialysis unit (HT Dialysis) according to manufacturer’s instructions. The dialysate side was then loaded with appropriate volume of buffer, while the same volume of spiked plasma was added into sample side of the well. Incubation lasted 4 h at 37 °C with gentle shaking. Afterwards, protein precipitation was done by mixing matrix matched aliquot of plasma or buffer with 3 volumes of MeCN/MeOH (2:1) mixture, containing internal standard (diclofenac). After centrifugation (at 4500 rpm, at 4 °C, for 30 min) resulting supernatants were subjected to LC-MS/MS.
All ADME samples were analysed on a Sciex API 4000 or Sciex API4500 Triple Quadrupole Mass Spectrometer (Sciex, Framingham, MA, USA) coupled to a UHPLC System (Shimadzu Nexera X2; Shimadzu, Kyoto, Japan). Samples were injected onto an UPLC column (HALO2 C18, 2.1 × 20 mm, 2 µm or Phenomenex Luna Omega Polar C18, 30 × 2.1 mm, 1.6 µm) and eluted with a gradient at temperature of 50 °C. The mobile phase was composed of acetonitrile (with 0.1% formic acid) and 0.1% formic acid in deionised water. A total run time was 1 or 1.5 min, with the flow rate of 0.7 ml/min (under gradient conditions). A positive ion mode with turbo spray, an ion source temperature of 500 °C and a dwell time of 150 ms were utilised for mass spectrometric detection. Multiple reaction monitoring (MRM) was used at the specific transitions for each compound/control tested: compound 5c: 361.9 → 304.9; compound 5d: 344.8 → 287.9; compound 5e: 349.8 → 292.9; compound 5 g: 350.8 → 293.9; compound 5 h: 344.0 → 286.9; compound 6a: 276.9 → 220.0; compound 5 b: 319.0 → 262.0; compound 6 b: 302.1 → 245.1; compound 6c: 344.9 → 288.0; compound 6d: 333.0 → 276.0; compound 6e: 316.1 → 259.0; compound 6f: 327.1 → 270.0; compound 6 g: 377.1 → 320.1; testosterone: 289.3→ 97.1; propranolol: 260.1 → 182.8; caffeine: 195.2 → 138.1; acebutolol: 337.2 → 116.2, nicardipine: 480.2 → 315.0; verapamil: 455.4 → 165.1; amprenavir: 506.2 → 245.4; diclofenac: 296.1 → 213.7 or 296.2 → 215.3; eucatropine: 292.2 → 109.1; benfluorex: 352.1 → 230.3, and warfarin: 309.2 → 163.2
(In general: In equilibrium dialysis only unbound substance equilibrates across the membrane.)

Series [4] deals with NCI-H358. Description: MTS cell viability (cytotoxicity) assay, 2D cell culture. As to conditions: Homo sapiens; NCI-H358, 2D cell culture, 72 h, MTS; ±SD, N = 2; read-out: IC50 antitumor activity NCI-H358 2D. The series is classed as cell-based. As to the method: as §1
(§3) Cells were grown in 96 well cell star polystyrene plates. 10,000 cells/well were seeded in wells 4 h prior the treatment with different compounds concentrations and incubated for 72 h. A cell viability assay was performed according to the manufacturer’s instruction, using CellTiter 96 aqueous solution, MTS kit (Promega, Madison, WI, USA). After 0.5–2 h of cell incubation with MTS in 2 D cell culture, the plates were read using PE EnVision absorbance at 490 nm. […] Since we prefer homogeneous assays (mix and read procedures) and therefore MTS is more practical (one step less than MTT). MTS is more sensitive and accurate in comparison with MTT assay.
as §2

Series [5] relates to A549. The series is described as above. As to conditions: Homo sapiens, A549, 2D cell culture, 72 h, ±SD, N = 2, read-out: IC50 antitumor activity A549 2D. The series is classed as cell-based. As to the method:
as §1, §3, §2

Series [6] has as its system HCC827. The series is described as above. In kind it is cell-based. As to conditions: Homo sapiens; HCC827, 2D cell culture, 72 h, MTS; ±SD, N = 2; read-out: IC50 antitumor activity HCC827 2D. As for the experimental part: as §1, §3, §2
[7] abbreviates: human plasma, read-out: PPB % bound, Human (converted).
Setting [8] is: mouse plasma, read-out: PPB % bound, Mouse (converted).

Like-named read-outs stand apart in the source and are kept apart here.

The chromatographic logD is a lipophilicity value derived from retention on a column. Low readings indicate lower lipophilicity, high ones higher lipophilicity. The IC50 is the concentration needed to halve the response being measured.

For `c1ccc(-c2nc3cc(C4=NCCCN4)ccc3[nH]2)cc1` [Compound 6a, 2-Phenyl-5(6)–(3,4,5,6-tetrahydropyrimidin-1-ium-2-yl)benzimidazole chloride], the chromatographic logD in series [1] stood at 0.92. Further, the IC50 in series [2] was 17 ± 1.94 µM; in series [4] it was 13 ± 0.28 µM; in series [5] it was 15 ± 1.7 µM; in series [6], 6 ± 0.5 µM. The fraction unbound at 4 h, 5 µM in series [3] (setting [7]) is 0.403; in series [3] (setting [8]), 0.371. Also, the recovery at 4 h, 5 µM in series [3] (human plasma) amounted to 75%; in series [3] (mouse plasma), 79%.

`N#Cc1ccc(-c2nc3cc(C4=NCCCN4)ccc3[nH]2)cc1` [Compound 6b, 2–(4-Cyanophenyl)-5(6)–(3,4,5,6-tetrahydropyrimidin-1-ium-2-yl)benzimidazole chloride] came in with a chromatographic logD in series [1] of 1.17. For the same molecule, the IC50 in series [2] was over 100 µM; in series [4], over 50 µM; in series [5] it was over 50 µM; in series [6], over 50 µM. Further, the fraction unbound at 4 h, 5 µM in series [3] (setting [7]) is 0.457; in series [3] (setting [8]), 0.365. The results for the recovery at 4 h, 5 µM in series [3] (human plasma) and in series [3] (mouse plasma) were 91% and 87%, respectively.

For `FC(F)(F)c1ccc(-c2nc3cc(C4=NCCCN4)ccc3[nH]2)cc1` [Compound 6c, 2–(4-Trifluoromethylphenyl)-5(6)–(3,4,5,6-tetrahydropyrimidin-1-ium-2-yl)benzimidazole chloride], the chromatographic logD in series [1] came to 2.6. Moreover, the IC50 in series [2] is over 100 µM; in series [4], over 50 µM; in series [5], over 50 µM; in series [6], over 50 µM. For the same molecule, the fraction unbound at 4 h, 5 µM in series [3] (setting [7]) is 0.144; in series [3] (setting [8]), 0.13. Also, the recovery at 4 h, 5 µM in series [3] (human plasma) was 97%; in series [3] (mouse plasma) it was 117%.

As for `c1ccc2sc(-c3nc4cc(C5=NCCCN5)ccc4[nH]3)cc2c1` [Compound 6d, 2-(Benzo[b]thiophen-2-yl)-5(6)–(3,4,5,6-tetrahydropyrimidin-1-ium-2-yl)benzimidazole chloride], the chromatographic logD in series [1] is 2.43. The IC50 was over 100 µM in series [2], over 50 µM in series [4], over 50 µM in series [5] and over 50 µM in series [6]. Further, the fraction unbound at 4 h, 5 µM in series [3] (setting [7]) is 0.074; in series [3] (setting [8]), 0.061. The recovery at 4 h, 5 µM was found to be 86% in series [3] (human plasma) and 89% in series [3] (mouse plasma).

Regarding `c1ccc2c(-c3nc4ccc(C5=NCCCN5)cc4[nH]3)c[nH]c2c1` [Compound 6e, 2-(1H-Indol-3-yl)-5(6)–(3,4,5,6-tetrahydropyrimidin-1-ium-2-yl)benzimidazole chloride], the chromatographic logD in series [1] was found to be 1.38. Moreover, the IC50 was over 100 µM in series [2], over 50 µM in series [4], over 50 µM in series [5] and over 50 µM in series [6]. The fraction unbound at 4 h, 5 µM is 0.349 in series [3] (setting [7]) and 0.259 in series [3] (setting [8]). In addition, the recovery at 4 h, 5 µM worked out at 81% in series [3] (human plasma) and 91% in series [3] (mouse plasma).

For the molecule `c1ccc2cc(-c3nc4cc(C5=NCCCN5)ccc4[nH]3)ccc2c1` [Compound 6f, 2-(Naphthalene-2-yl)-5(6)–(3,4,5,6-tetrahydropyrimidin-1-ium-2-yl)benzimidazole chloride], the chromatographic logD in series [1] amounted to 2.18. The IC50 in series [2] is over 100 µM; in series [4], over 50 µM; in series [5] it was over 50 µM; in series [6] it was over 50 µM. Also, the figures for the fraction unbound at 4 h, 5 µM in series [3] (setting [7]) and in series [3] (setting [8]) were 0.19 and 0.12, respectively. The recovery at 4 h, 5 µM stood at 91% in series [3] (human plasma) and 102% in series [3] (mouse plasma).

As to `c1ccc2c(c1)cc(-c1nc3cc(C4=NCCCN4)ccc3[nH]1)c1ccccc12` [Compound 6g, 2-(Phenanthrene-9-yl)-5(6)–(3,4,5,6-tetrahydropyrimidin-1-ium-2-yl)benzimidazole chloride], in series [1], the chromatographic logD was 3.27. Besides, the IC50 in series [2] is over 100 µM; in series [4] it was over 50 µM; in series [5], over 50 µM; in series [6], over 50 µM. For the same molecule, the fraction unbound at 4 h, 5 µM was 0.015 in series [3] (setting [7]) and 0.003 in series [3] (setting [8]). For the same molecule, the recovery at 4 h, 5 µM worked out at 96% in series [3] (human plasma) and 95% in series [3] (mouse plasma).
